Among the data in patent US9045493B2, “Furo[3,2-b]- and thieno[3,2-b]pyridin derivatives” (Merck Patent GmbH, priority 2012, dated 2015) are IC50 values, retold here.

A word on the IC50: it is the concentration that inhibits the measured activity by half.

Assay [1] deals with T1, TANK binding kinase (TBK1) (Homo sapiens, UniProt Q9UHD2).
T1 sequence (Q9UHD2 1-729): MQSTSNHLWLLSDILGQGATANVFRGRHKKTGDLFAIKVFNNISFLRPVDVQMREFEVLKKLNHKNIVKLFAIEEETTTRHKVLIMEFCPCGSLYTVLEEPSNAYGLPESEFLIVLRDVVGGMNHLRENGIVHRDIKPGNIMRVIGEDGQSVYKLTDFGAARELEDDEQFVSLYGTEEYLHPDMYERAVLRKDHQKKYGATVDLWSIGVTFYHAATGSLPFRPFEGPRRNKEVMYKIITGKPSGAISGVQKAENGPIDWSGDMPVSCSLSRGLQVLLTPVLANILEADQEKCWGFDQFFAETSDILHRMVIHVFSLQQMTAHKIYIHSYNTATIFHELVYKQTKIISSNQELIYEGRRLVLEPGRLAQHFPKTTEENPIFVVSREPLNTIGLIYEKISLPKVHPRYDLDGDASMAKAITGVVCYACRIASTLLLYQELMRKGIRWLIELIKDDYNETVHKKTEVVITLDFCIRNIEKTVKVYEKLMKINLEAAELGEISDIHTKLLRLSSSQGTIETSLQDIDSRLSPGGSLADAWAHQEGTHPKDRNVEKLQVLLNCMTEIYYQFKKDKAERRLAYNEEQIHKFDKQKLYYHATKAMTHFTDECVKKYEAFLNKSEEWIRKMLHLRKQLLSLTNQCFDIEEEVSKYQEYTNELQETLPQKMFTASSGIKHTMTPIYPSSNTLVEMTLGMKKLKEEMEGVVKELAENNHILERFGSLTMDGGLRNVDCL
Put plainly: TBK1 enzyme assay (384-well Flashplate kinase assay). Format: biochemical. As to conditions: 10 μM ATP, 120 Min at 30° C. In a few lines:
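Radiometric Flashplate assay: 0.6 nM TBK1, 800 nM biotinylated MELK-derived peptide and 10 μM ATP with 33P-ATP, 120 min at 30 °C in MOPS/Mg-acetate buffer pH 7.5. Stopped with EDTA; nonspecific signal defined with 100 nM staurosporine; IC50 from counted radioactivity.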

The target in the next assay is T2, IKKε (Homo sapiens, UniProt Q14164).
T2 sequence (Q14164 1-716): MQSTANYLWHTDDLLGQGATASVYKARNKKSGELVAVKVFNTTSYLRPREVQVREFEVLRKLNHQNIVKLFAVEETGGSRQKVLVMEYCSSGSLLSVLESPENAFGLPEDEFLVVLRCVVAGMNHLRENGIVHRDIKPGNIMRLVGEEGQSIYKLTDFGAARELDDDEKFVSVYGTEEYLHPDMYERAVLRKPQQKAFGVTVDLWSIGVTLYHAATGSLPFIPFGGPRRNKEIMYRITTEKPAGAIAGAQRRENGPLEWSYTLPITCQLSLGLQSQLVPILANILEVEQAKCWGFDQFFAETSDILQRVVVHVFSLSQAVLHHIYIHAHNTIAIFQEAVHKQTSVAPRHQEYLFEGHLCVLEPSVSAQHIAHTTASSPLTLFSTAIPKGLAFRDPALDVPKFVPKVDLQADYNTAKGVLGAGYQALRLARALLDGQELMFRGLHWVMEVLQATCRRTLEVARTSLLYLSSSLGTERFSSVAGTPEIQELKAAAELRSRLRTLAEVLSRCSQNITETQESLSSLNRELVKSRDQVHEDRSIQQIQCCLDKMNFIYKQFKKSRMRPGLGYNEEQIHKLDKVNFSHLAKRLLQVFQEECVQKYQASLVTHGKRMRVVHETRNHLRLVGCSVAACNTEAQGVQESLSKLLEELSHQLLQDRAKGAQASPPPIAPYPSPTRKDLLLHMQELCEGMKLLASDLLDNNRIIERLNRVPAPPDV
Put plainly: IKKε kinase assay (384-well Flashplate). It counts as biochemical. Particulars: 10 μM ATP, 2 hours at 30° C.; read-out: IKKε enzyme assay IC50. Summed up:
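1 nM IKKε with 800 nM biotinylated IκBα(19-42) peptide and 10 μM ATP spiked with ^33P-ATP, 2 h at 30 °C in MOPS buffer pH 7.5. EDTA stop, Flashplate capture, washes, then radioactivity counted; IC50 derived.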

The structures appear in SMILES notation. Where only a bound is given, the exact number is not on record here.

For `N#Cc1cc(-c2ccnc3cc(-c4ccc(C(=O)NCCN5CCNC5=O)cc4)oc23)ccc1OC1CCOCC1` [Compound A77], the IC50 (in assay [1]; at IKKε) was < 300 nM each time.
As to `N#Cc1cc(-c2ccnc3cc(-c4ccc(C(=O)NCCN5CCCC5)cc4)oc23)ccc1OC1CCOCC1` [Compound A78], the IC50 (in assay [1]; on IKKε) was < 300 nM throughout.
`N#Cc1cc(-c2ccnc3cc(-c4ccc(C(=O)NCCN5CCOCC5)cc4)oc23)ccc1OC1CCOCC1` [Compound A79]: the IC50 (in assay [1]; on IKKε) was < 300 nM in each case.
Consider `CC(=O)NCCNC(=O)c1ccc(-c2cc3nccc(-c4ccc(OC5CCOCC5)c(C#N)c4)c3o2)cc1` [Compound A80], for which the IC50 (in assay [1]; on IKKε) was < 300 nM in each case.
Take `N#Cc1cc(-c2ccnc3cc(-c4ccc(C(=O)NCCc5cccnc5)cc4)oc23)ccc1OC1CCOCC1` [Compound A81]: the concentration for half-maximal inhibition (IC50) in assay [1] is 300 to 3000 nM; on IKKε, < 300 nM.
As to `N#Cc1cc(-c2ccnc3cc(-c4ccc(C(=O)NC5COc6ccccc6C5)cc4)oc23)ccc1OC1CCOCC1` (centres unmarked) [Compound A82], the IC50 (in assay [1]; at IKKε) was 300 to 3000 nM each time.
Turning to `N#Cc1cc(-c2ccnc3cc(-c4ccc(C(=O)NCCN5CCC(F)(F)CC5)cc4)oc23)ccc1OC1CCOCC1` [Compound A83], the IC50 (in assay [1]; on IKKε) was < 300 nM in each case.
As to `N#Cc1cc(-c2ccnc3cc(-c4ccc(C(=O)N5CCN(CCO)CC5)cc4)oc23)ccc1OC1CCOCC1` [Compound A84], the half-inhibitory concentration (IC50) (in assay [1]; at IKKε) was < 300 nM throughout.
With `N#Cc1cc(-c2ccnc3cc(-c4ccc(C(=O)NCCC(F)(F)F)cc4)oc23)ccc1OC1CCOCC1` [Compound A85], the IC50 (in assay [1]; on IKKε) was 300 to 3000 nM throughout.
Take `N#Cc1cc(-c2ccnc3cc(-c4ccc(C(=O)N5CCNC(=O)CC5)cc4)oc23)ccc1OC1CCOCC1` [Compound A86]: the IC50 (in assay [1]; on IKKε) was < 300 nM each time.
For `COc1cc(-c2cc3nccc(-c4ccc(OC5CCOCC5)c(C#N)c4)c3o2)ccc1C(=O)NCCN1CCNC1=O` [Compound A87], the IC50 (in assay [1]; at IKKε) was < 300 nM each time.
With `COc1cc(-c2cc3nccc(-c4ccc(OC5CCOCC5)c(C#N)c4)c3o2)ccc1C(=O)NC1CCCN(C)C1` (centres unmarked) [Compound A88], the half-maximal inhibitory concentration (IC50) (in assay [1]; on IKKε) was < 300 nM each time.
Consider `COc1cc(-c2cc3nccc(-c4ccc(OC5CCOCC5)c(C#N)c4)c3o2)ccc1C(=O)N1CCN(CCO)CC1` [Compound A89], for which the IC50 (in assay [1]; at IKKε) was < 300 nM each time.
As to `COc1cc(-c2cc3nccc(-c4ccc(OC5CCOCC5)c(C#N)c4)c3o2)ccc1C(=O)NCCN1CCC(F)(F)CC1` [Compound A90], the IC50 (in assay [1]; on IKKε) was < 300 nM throughout.
In the case of `COc1cc(-c2cc3nccc(-c4ccc(OC5CCOCC5)c(C#N)c4)c3o2)ccc1C(=O)N1CCNC(=O)CC1` [Compound A91], the IC50 (in assay [1]; on IKKε) was < 300 nM each time.
On to `COc1cc(-c2cc3nccc(-c4ccc(OC5CCOCC5)c(C#N)c4)c3o2)ccc1C(=O)N1CC[C@H](O)C1` [Compound A92], for which the IC50 (in assay [1]; at IKKε) was < 300 nM throughout.
For the molecule `COc1cc(-c2cc3nccc(-c4ccc(OC5CCOCC5)c(C#N)c4)c3o2)ccc1C(=O)NCC(N)=O` [Compound A93], the 50% inhibitory concentration (IC50) (in assay [1]; at IKKε) was < 300 nM in each case.
`COc1cc(-c2cc3nccc(-c4ccc(OC5CCOCC5)c(C#N)c4)c3o2)ccc1C(=O)N[C@H]1CCCNC1` [Compound A94]: the IC50 (in assay [1]; on IKKε) was < 300 nM each time.
As to `CN(CCO)C(=O)c1ccc(-c2cc3nccc(-c4ccc(OC5CCOC5)c(C#N)c4)c3s2)cc1` (centres unmarked) [Compound A95], the IC50 (in assay [1]; at IKKε) was < 300 nM throughout.
For `N#Cc1cc(-c2ccnc3cc(-c4cnn(C5CCNCC5)c4)sc23)ccc1OC1CCOCC1` [Compound A96], the 50% inhibitory concentration (IC50) (in assay [1]; on IKKε) was < 300 nM each time.
`N#Cc1cc(-c2ccnc3cc(-c4cnn(C5CCN(CCO)CC5)c4)sc23)ccc1OC1CCOCC1` [Compound A97]: the IC50 (in assay [1]; on IKKε) was < 300 nM in each case.
For the molecule `COc1cc(-c2cc3nccc(-c4ccc(OC5CCOCC5)c(C#N)c4)c3o2)ccc1C(=O)N1CC[C@@H](O)C1` [Compound A98], the IC50 (in assay [1]; at IKKε) was < 300 nM throughout.
On to `COc1cc(-c2cc3nccc(-c4ccc(OC5CCOCC5)c(C#N)c4)c3o2)ccc1C(=O)NC1CCN(C)CC1` [Compound A99], for which the IC50 (in assay [1]; on IKKε) was < 300 nM in each case.
In the case of `COc1cc(-c2cc3nccc(-c4ccc(OC5CCOC5)c(C#N)c4)c3s2)ccc1C(=O)N1CCNCC1` (centres unmarked) [Compound A100], the IC50 (in assay [1]; on IKKε) was < 300 nM in each case.
As for `COc1cc(-c2cc3nccc(-c4ccc(OC5CCOCC5)c(C#N)c4)c3o2)ccc1C(=O)N1CCC(O)CC1` [Compound A101], the IC50 (in assay [1]; on IKKε) was < 300 nM in each case.
Regarding `COc1cc(-c2cc3nccc(-c4ccc(OC5CCOCC5)c(C#N)c4)c3o2)ccc1C(=O)N(C)C1CCOCC1` [Compound A102], the IC50 (in assay [1]; on IKKε) was < 300 nM in each case.
As to `COc1cc(-c2cc3nccc(-c4ccc(OC5CCOCC5)c(C#N)c4)c3o2)ccc1C(=O)N1CCOC(CCO)C1` (centres unmarked) [Compound A103], the IC50 (in assay [1]; at IKKε) was < 300 nM throughout.
On to `COc1cc(-c2cc3nccc(-c4ccc(OC5CCOCC5)c(C#N)c4)c3o2)ccc1C(=O)N1CCOCC1` [Compound A104], for which the half-inhibitory concentration (IC50) (in assay [1]; on IKKε) was < 300 nM in each case.
Take `COc1cc(-c2cc3nccc(-c4ccc(OC5CCOCC5)c(C#N)c4)c3o2)ccc1C(=O)NC1CCOCC1` [Compound A105]: the IC50 (in assay [1]; at IKKε) was < 300 nM throughout.
`COc1cc(-c2cc3nccc(-c4ccc(OC5CCOCC5)c(C#N)c4)c3o2)ccc1C(=O)N[C@@H]1CCCNC1` [Compound A106]: the IC50 (in assay [1]; at IKKε) was < 300 nM in each case.
For the molecule `CN(CCO)C(=O)c1ccc(-c2cc3nccc(-c4ccc(OC5CCOCC5)c(C#N)c4)c3o2)c(F)c1` [Compound A107], the IC50 (in assay [1]; at IKKε) was < 300 nM each time.
As to `N#Cc1cc(-c2ccnc3cc(-c4cnn(CCO)c4)sc23)ccc1OC1CCOCC1` [Compound A108], the IC50 (in assay [1]; at IKKε) was < 300 nM each time.
Regarding `COc1cc(-c2cc3nccc(-c4ccc(OC5CCOCC5)c(C#N)c4)c3o2)ccc1C(=O)N1CCNC(=O)C1` [Compound A109], the IC50 (in assay [1]; at IKKε) was < 300 nM throughout.
With `N#Cc1cc(-c2ccnc3cc(-c4ccc(C(=O)N5CCNCC5)cc4F)oc23)ccc1OC1CCOCC1` [Compound A111], the IC50 (in assay [1]; at IKKε) was < 300 nM throughout.
Turning to `N#Cc1cc(-c2ccnc3cc(-c4ccc(C(=O)N5CCNC(=O)CC5)cc4F)oc23)ccc1OC1CCOCC1` [Compound A112], the IC50 (in assay [1]; at IKKε) was < 300 nM in each case.
In the case of `N#Cc1cc(-c2ccnc3cc(-c4ccc(C(=O)N5CCC(O)CC5)cc4F)oc23)ccc1OC1CCOCC1` [Compound A113], the IC50 (in assay [1]; on IKKε) was < 300 nM in each case.
As to `N#Cc1cc(-c2ccnc3cc(-c4ccc(C(=O)N5CCOCC5)cc4F)oc23)ccc1OC1CCOCC1` [Compound A114], the IC50 (in assay [1]; at IKKε) was < 300 nM throughout.
